Experimental data from patent US10576069B2, “Treatment for chemotherapy-induced cognitive impairment” (Panacea Pharmaceutical Inc., priority 2013, dated 2020).

What was measured:
[1] = system: mixed cortical and striatal neurons; test: LDH analysis (cell membrane leakage) of neurons insulted with anticancer drugs; format: cell-based; conditions: MTX 100 μM, 5-FU 25 μM, CDDP 3.5 μM
Method: Neuronal Cell Culture. Mixed cortical and striatal neurons from embryonic day 17 male Sprague-Dawley rats (tissue obtained from NIH) were seeded into poly-D-lysine coated 96-well plates at density of 50,000 cells/well and initially cultured at 37° C., 5% CO2, in neurobasal medium (NB) with B27 supplement (Invitrogen) containing full strength of AOs to obtain highly enriched (95%) neurons. Since AOs, including vitamin E, vitamin E acetate, superoxide dismutase (SOD), catalase (CAT), and GSH, are additives to culture medium, reduction of AO concentration in culture medium provides an approach to determine the level of OS involvement in a neurotoxic process. […]
(§1) Quantitative Assays and Morphological Assessment. Cell membrane integrity and mitochondrial function of either neurons or cancer cells were measured with LDH and 3-(4,5-dimethylthiazol-2-yl)-5-(3-carboxymethoxyphenyl)-2-(4-sulfophenyl)-2H-tetrazolium [MTS] analyses, respectively. The latter has been used to quantify cell survival. […] The preparations for both assays were then spectrophotometrically measured at 490 nm using a 96-well plate reader (Mode 550, Bio-Rad). Neuronal cell death was morphologically determined based on the integrity of the cell soma and continuity of neuronal processes. […]

[2] = system: human lung cancer cell line H460; test: MTS analysis of H460 cancer cells; format: cell-based; conditions: H460, 3 days; 3.5 μM CDDP, 10 μM PAN-811 or both; FIG. 5(d)
Method: (§2) Cancer Cell Culture. The mouse liver cancer cell line BNLT3 (gift of Dr. Jack Wands, Brown University) and the human lung cancer cell line H460 (ATCC) were seeded into 96-well plates at a density of 4,000 cells/well and cultured at 37° C., 5% CO2, in DMEM (11965, Gibco) supplemented with 10% fetal bovine serum, 20 mM HEPES, 1 mM sodium pyruvate, and […] gentamycin (all reagents came from Gibco).
Cell Insults and Treatments. Determination of concentration for each anticancer drug in our experiments was based on its reported concentration in human cerebral spinal fluid (CSF) in chemotherapy, literature report of its neurotoxicity in culture, and our preliminary in vitro experimental data. […]
as §1

[3] = system: mouse liver cancer cell line BNLT3; test: MTS analysis of BNLT3 cancer cells; format: cell-based; conditions: BNLT3, 3 days, 10 μM PAN-811 or both
Method: as §2
(§3) Cell Insults and Treatments. Determination of concentration for each anticancer drug in our experiments was based on its reported concentration in human cerebral spinal fluid (CSF) in chemotherapy, literature report of its neurotoxicity in culture, and our preliminary in vitro experimental data. […] For ROS examination, the neurons were insulted with both 100 μM of MTX and 25 μM of 5-FU by 15 d.i.v. PAN-811.Cl.H2O was added to cultures to final concentrations of 1.25, 2.5, 5, and 10 μM at the same time as addition of the anticancer drugs.
as §1, with “survival. For the LDH assay, a mixture of a 35 μL aliquot of culture supernatant and 17.5 μL of Mixed Substrate, Enzyme and Dye Solutions (Sigma) was incubated at room temperature (RT) for 30 minutes. For the MTS assay, 10 μL of MTS reagent (Promega) was added to a culture well containing neurons in 50 μL of medium.” for “survival.”
Data Analysis. Data were generated from 4-6 replicate wells, expressed as mean±standard deviation (SD), and statistically evaluated at a significance level of 1% with one factor ANOVA or Student's t-test by using software […] […]

[4] = system: human lung cancer cell line H460; test: LDH analysis (membrane integrity) of H460 cancer cells; format: cell-based; conditions: H460, 3 days
Method: as §2, §3
Quantitative Assays and Morphological Assessment. Cell membrane integrity and mitochondrial function of either neurons or cancer cells were measured with LDH and 3-(4,5-dimethylthiazol-2-yl)-5-(3-carboxymethoxyphenyl)-2-(4-sulfophenyl)-2H-tetrazolium [MTS] analyses, respectively. The latter has been used to quantify cell survival. For the LDH assay, a mixture of a 35 μL aliquot of culture supernatant and 17.5 μL of Mixed Substrate, Enzyme and Dye Solutions (Sigma) was incubated at room temperature (RT) for 30 minutes. For the MTS assay, 10 μL of MTS reagent (Promega) was added to a culture well containing neurons in 50 μL of medium. The preparations were incubated at 37° C. for 2 hours. The preparations for both assays were then spectrophotometrically measured at 490 nm using a 96-well plate reader (Mode 550, Bio-Rad). Neuronal cell death was morphologically determined based on the integrity of the cell soma and continuity of neuronal processes. The change in number of cancer cells was judged directly by cell density. Cells were photographed under an inverted phase contrast microscope (IX 70, Olympus) using 10× or 20× objective.
Data Analysis. Data were generated from 4-6 replicate wells, expressed as mean±standard deviation (SD), and statistically evaluated at a significance level of […] with one factor ANOVA or Student's t-test by using software […] (http://vassarstats.net/) followed by the Tukey HSD test. Figure symbols are as follows: #, P<0.05, and ##, P<0.01, compared with control; *, P<0.05, and **, P<0.01, compared with the insulted group; §§, P<0.01, compared with PAN-811 treated group by Student's t-test.

[5] = system: hydrogen peroxide-induced LDH release; conditions: PAN-811 at 10 μM; compared with untreated and H2O2-insulted group; cited from earlier work
[6] = system: MCAo infarct formation, brain edema, mortality; conditions: single i.v. bolus, 2 mg/kg, two-hour MCAo; cited from earlier work
[7] = 3.5 μM CDDP, 10 μM PAN-811 or both, FIG. 5(g)
[8] = 25 μM 5-FU, 10 μM PAN-811 or cotreatment, FIG. 5(f)
[9] = 100 μM MTX or 10 μM PAN-811, FIG. 5(e)

Row | SMILES | LDH increase in culture supernatant (cell membrane leakage) ([1]; neurons in 25% AO, 3 days, FIG. 1(c)) | increase in LDH reading ([1]; neurons, 12.5% AO condition, FIG. 2(b)) | reduction of MTS reading [2] | reduction of MTS reading ([3]; 3.5 μM CDDP, FIG. 4(f)) | increase in LDH reading in the culture supernatant [4, 7] | increase in LDH reading in the culture supernatant [4, 8] | maximal protection against hydrogen peroxide-induced LDH release [5] | reduction of MTS reading ([3]; 100 μM MTX, FIG. 4(d)) | increase in LDH reading in the culture supernatant [4, 9] | maximal protection (reduction of infarct volume) [6]
1 | N.N.[Cl][Pt][Cl] [CDDP] | significant LDH increase | significant increases in LDH reading | 22% | 44% | 71% | – | – | – | – | –
2 | O=c1[nH]cc(F)c(=O)[nH]1 [5-FU, 5-fluorouracil] | – | – | – | – | – | 124% | – | – | – | –
3 | NC(=S)N/N=C/c1ncccc1N [PAN-811, 3-aminopyridine-2-carboxaldehyde thiosemicarbazone] | – | – | – | 94% | 30% | 30% | 90% | the same level as MTX | 31% | 50%
4 | CN(Cc1cnc2nc(N)nc(N)c2n1)c1ccc(C(=O)N[C@@H](CCC(=O)O)C(=O)O)cc1 [MTX, methotrexate] | – | – | – | – | – | – | – | – | 95% | –
